# Where a name gives a salt, the structure may show the parent alone.
# Molecular target: T1, human CTPS1 (Homo sapiens, UniProt P17812)
# T1 construct: purchased Proteros biostructures GmbH
# T1 sequence (P17812 1-591): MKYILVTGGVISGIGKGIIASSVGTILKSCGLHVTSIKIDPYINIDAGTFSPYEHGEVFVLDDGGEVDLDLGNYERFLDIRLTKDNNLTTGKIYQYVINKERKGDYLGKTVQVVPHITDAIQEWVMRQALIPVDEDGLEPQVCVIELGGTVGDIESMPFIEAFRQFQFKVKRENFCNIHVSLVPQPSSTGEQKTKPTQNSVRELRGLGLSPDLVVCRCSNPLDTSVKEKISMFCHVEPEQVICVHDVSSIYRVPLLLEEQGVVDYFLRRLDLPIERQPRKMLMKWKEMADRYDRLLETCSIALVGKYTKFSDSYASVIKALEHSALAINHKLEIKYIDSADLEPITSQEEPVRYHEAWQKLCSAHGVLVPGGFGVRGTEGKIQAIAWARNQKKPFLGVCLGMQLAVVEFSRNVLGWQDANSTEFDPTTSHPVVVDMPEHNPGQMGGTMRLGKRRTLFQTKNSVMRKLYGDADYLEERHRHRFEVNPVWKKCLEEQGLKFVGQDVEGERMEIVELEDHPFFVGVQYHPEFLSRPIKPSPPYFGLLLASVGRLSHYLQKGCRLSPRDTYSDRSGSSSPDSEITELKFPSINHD
# Assay: Human CTPS1 enzyme inhibition (ADP-Glo Max assay)
# Assay type: biochemical
# Conditions: Table 17, 25° C., read-out: CTPS1 (Human CTPS1 Enzyme Inhibition data grouped by potency range)
# Method: The enzyme inhibitory activities of compounds invented against the target of interest were determined using the ADP-Glo™ Max assay (Promega, UK). Assays for human CTPS1 were performed in 1× assay buffer containing 50 mM Tris, 10 mM MgCl2, 0.01% Tween-20, pH to 8.0 accordingly. Finally, immediately before use, L-cysteine was added to the 1× assay buffer to a final concentration of 2 mM. All reagents are from Sigma-Aldrich unless specified otherwise.
# 3× human CTPS1 protein was prepared in 1× assay buffer to the final working protein concentration required for the reaction. A 2 uL volume per well of 3× human CTPS1 protein was mixed with 2 uL per well of 3× test compound (compound prepared in 1× assay buffer to an appropriate final 3× compound concentration respective to the concentration response curve designed for the compounds under test) for 10 minutes at 25° C. […] ADP-Glo™ Max reagent was added for 60 minutes (6 uL per well) and subsequently ADP-Glo™ Max development reagent was added for 60 minutes (12 uL per well) prior to signal detection in a microplate reader (EnVision® Multilabel Reader, Perkin Elmer). Following each reagent addition over the course of the assay, assay plates were pulse centrifuged for 30 seconds at 500 rpm.
# In all cases, the enzyme converts ATP to ADP and the ADP-Glo™ Max reagent subsequently depletes any remaining endogenous ATP in the reaction system. The ADP-Glo™ Max detection reagent converts the ADP that has been enzymatically produced back into ATP and using ATP as a substrate together with luciferin for the enzyme luciferase, light is generated which produces a detectable luminescence. […] The percentage inhibition produced by each concentration of compound was calculated using the equation shown below: […]
row,SMILES,IC50
1,"CCC(C(=O)Nc1ccc(-c2cccnc2)cc1)c1csc(NS(=O)(=O)C2CC2)n1 (racemic) [T5, 2-(2-(cyclopropanesulfonamido)thiazol-4-yl)-N-(4-(pyridin-3-yl)phenyl)butanamide]",< 100 nM
2,"CCC(C(=O)Nc1ccc(-c2cncc(Cl)c2)cc1)c1csc(NS(=O)(=O)C2CC2)n1 (racemic) [T8, N-(4-(5-chloropyridin-3-yl)phenyl)-2-(2-(cyclopropanesulfonamido)thiazol-4-yl)butanamide]",< 100 nM
3,"CC(C)C(C(=O)Nc1ccc(-c2cccnc2)cc1)c1csc(NS(=O)(=O)C2CC2)n1 (racemic) [T12, 2-(2-(cyclopropanesulfonamido)thiazol-4-yl)-3-methyl-N-(4-(pyridin-3-yl)phenyl)butanamide]",100 to 1000 nM
4,"CCC(C(=O)Nc1ccc(-c2cccnc2)cc1)c1csc(NS(=O)(=O)C2CC2)n1 (single isomer, unassigned) [T6, 2-(2-(cyclopropanesulfonamido)thiazol-4-yl)-N-(4-(pyridin-3-yl)phenyl)butanamide.HCl]",100 to 1000 nM
5,"CCC(C(=O)Nc1ccc(-c2cccnc2)cc1)c1csc(NS(=O)(=O)C2CC2)n1 (single isomer, unassigned) [T7, 2-(2-(cyclopropanesulfonamido)thiazol-4-yl)-N-(4-(pyridin-3-yl)phenyl)butanamide.HCl]",< 100 nM
6,"CCC(C(=O)Nc1ccc(-c2cncc(Cl)c2)cc1)c1csc(NS(=O)(=O)C2CC2)n1 (single isomer, unassigned) [T9, N-(4-(5-chloropyridin-3-yl)phenyl)-2-(2-(cyclopropanesulfonamido)thiazol-4-yl)butanamide.HCl]",< 100 nM
7,"CCC(C(=O)Nc1ccc(-c2cncc(Cl)c2)cc1)c1csc(NS(=O)(=O)C2CC2)n1 (single isomer, unassigned) [T10, N-(4-(5-chloropyridin-3-yl)phenyl)-2-(2-(cyclopropanesulfonamido)thiazol-4-yl)butanamide.HCl]",< 100 nM
8,"CC(C)C(C(=O)Nc1ccc(-c2cccnc2)cc1)c1csc(NS(=O)(=O)C2CC2)n1 (single isomer, unassigned) [T13, 2-(2-(cyclopropanesulfonamido)thiazol-4-yl)-3-methyl-N-(4-(pyridin-3-yl)phenyl)butanamide.HCl]",100 to 1000 nM
9,"CC(C)C(C(=O)Nc1ccc(-c2cccnc2)cc1)c1csc(NS(=O)(=O)C2CC2)n1 (single isomer, unassigned) [T14, 2-(2-(cyclopropanesulfonamido)thiazol-4-yl)-3-methyl-N-(4-(pyridin-3-yl)phenyl)butanamide.HCl]",100 to 1000 nM
10,"CS(=O)(=O)Nc1nc(CC(=O)Nc2ccc(-c3ccccc3)cc2)cs1 [T1, N-([1,1′-biphenyl]-4-yl)-2-(2-(methylsulfonamido)thiazol-4-yl)acetamide]",1000 to 10000 nM
11,"CCC(CC)(C(=O)Nc1ccc(-c2cnccn2)cn1)c1csc(NS(=O)(=O)C2CC2)n1 [T3, 2-(2-(cyclopropanesulfonamido)thiazol-4-yl)-2-ethyl-N-(5-(pyrazin-2-yl)pyridin-2-yl)butanamide]",100 to 1000 nM
12,"CC(C)(C(=O)Nc1ccc(-c2ncccn2)cc1)c1csc(NS(=O)(=O)C2CC2)n1 [T4, 2-(2-(cyclopropanesulfonamido)thiazol-4-yl)-2-methyl-N-(4-(pyrimidin-2-yl)phenyl)propanamide]",1000 to 10000 nM
13,"CC(C)C(C(=O)Nc1ccc(-c2cncnc2)cc1)c1csc(NS(=O)(=O)C2CC2)n1 (stereo not shown) [T11, 2-(2-(cyclopropanesulfonamido)thiazol-4-yl)-3-methyl-N-(4-(pyrimidin-5-yl)phenyl)butanamide]",100 to 1000 nM
14,"COc1cncc(-c2ccc(NC(=O)C(C)(C)c3csc(NS(=O)(=O)C4CC4)n3)cc2)c1 [T15, 2-(2-(cyclopropanesulfonamido)thiazol-4-yl)-N-(4-(5-methoxypyridin-3-yl)phenyl)-2-methylpropanamide]",100 to 1000 nM

# More lines, now with the values ahead:
row,IC50,SMILES
1,< 100 nM,"CCC(C(=O)Nc1ccc(-c2cncc(F)c2)cc1)c1csc(NS(=O)(=O)C2CC2)n1 (single isomer, unassigned) [T72]"
2,< 100 nM,"CCC(C(=O)Nc1ccc(-c2cncc(C(F)(F)F)n2)cc1)c1csc(NS(=O)(=O)C2CC2)n1 (single isomer, unassigned) [T106]"
3,< 100 nM,"COc1cncc(-c2ccc(NC(=O)C(OC)c3csc(NS(=O)(=O)C4CC4)n3)cc2)n1 (single isomer, unassigned) [T107]"
4,< 100 nM,"CCOc1cncc(-c2ccc(NC(=O)C(CC)c3csc(NS(=O)(=O)C4CC4)n3)cc2)n1 (single isomer, unassigned) [T204]"
5,100 to 1000 nM,"CCC(C(=O)Nc1ccc(-c2cncc(OCC(F)(F)F)n2)cc1)c1csc(NS(=O)(=O)C2CC2)n1 (single isomer, unassigned) [T222]"
6,< 100 nM,"CCC(C(=O)Nc1ccc(-c2cncc(OCC(F)(F)F)n2)cc1)c1csc(NS(=O)(=O)C2CC2)n1 (single isomer, unassigned) [T223]"

# Same assay, conditions: Table 18, additional potency data, 25° C., read-out: CTPS1 (Human CTPS1 Enzyme Inhibition data grouped by potency range)
row,SMILES,IC50
1,"CCC(C(=O)Nc1ccc(-c2cncc(C(F)(F)F)n2)cn1)c1csc(NS(=O)(=O)C2CC2)n1 (single isomer, unassigned) [T414, 2-(2-(cyclopropanesulfonamido)thiazol-4-yl)-N-(5-(6-(trifluoromethyl)pyrazin-2-yl)pyridin-2-yl)butanamide]",< 100 nM
2,"CCC(C(=O)Nc1ccc(-c2cncc(C(F)(F)F)c2)cc1F)c1csc(NS(=O)(=O)C2CC2)n1 (single isomer, unassigned) [T415, 2-(2-(cyclopropanesulfonamido)thiazol-4-yl)-N-(2-fluoro-4-(5-(trifluoromethyl)pyridin-3-yl)phenyl)butanamide]",100 to 1000 nM
3,"CCC(C(=O)Nc1ccc(-c2cncc(C(F)(F)F)c2)cc1F)c1csc(NS(=O)(=O)C2CC2)n1 (single isomer, unassigned) [T416, 2-(2-(cyclopropanesulfonamido)thiazol-4-yl)-N-(2-fluoro-4-(5-(trifluoromethyl)pyridin-3-yl)phenyl)butanamide]",< 100 nM
4,"CCC(C(=O)Nc1ccc(-c2cncc(C(F)(F)F)n2)cc1F)c1csc(NS(=O)(=O)C2CC2)n1 (single isomer, unassigned) [T458]",< 100 nM
5,"COC(C(=O)Nc1ccc(-c2cncc(C(F)(F)F)n2)cc1F)c1csc(NS(=O)(=O)C2CC2)n1 (single isomer, unassigned) [T459]",< 100 nM

# Results, then the compound that gave them:
row,IC50,SMILES
1,< 100 nM,"CCOc1cncc(-c2ccc(NC(=O)C(OC)c3csc(NS(=O)(=O)C4CC4)n3)cc2)n1 (racemic) [T410, 2-(2-(cyclopropanesulfonamido)thiazol-4-yl)-N-(4-(6-ethoxypyrazin-2-yl)phenyl)-2-methoxyacetamide]"
2,< 100 nM,"CCOc1cncc(-c2ccc(NC(=O)C(OC)c3csc(NS(=O)(=O)C4CC4)n3)cc2)n1 (single isomer, unassigned) [T330, 2-(2-(cyclopropanesulfonamido)thiazol-4-yl)-N-(4-(6-ethoxypyrazin-2-yl)phenyl)-2-methoxyacetamide]"
3,< 100 nM,"CCOc1cncc(-c2ccc(NC(=O)C(OC)c3csc(NS(=O)(=O)C4CC4)n3)cc2)n1 (single isomer, unassigned) [T331, 2-(2-(cyclopropanesulfonamido)thiazol-4-yl)-N-(4-(6-ethoxypyrazin-2-yl)phenyl)-2-methoxyacetamide]"
4,< 100 nM,"CCOc1cncc(-c2ccc(NC(=O)C(CC)c3csc(NS(=O)(=O)C4CC4)n3)c(F)c2)n1 (single isomer, unassigned) [T412, 2-(2-(cyclopropanesulfonamido)thiazol-4-yl)-N-(4-(6-ethoxypyrazin-2-yl)-2-fluorophenyl)butanamide]"
5,< 100 nM,"CCOc1cncc(-c2ccc(NC(=O)C(CC)c3csc(NS(=O)(=O)C4CC4)n3)c(F)c2)n1 (single isomer, unassigned) [T413, 2-(2-(cyclopropanesulfonamido)thiazol-4-yl)-N-(4-(6-ethoxypyrazin-2-yl)-2-fluorophenyl)butanamide]"
6,< 100 nM,"CCOc1cncc(-c2cnc(NC(=O)C(CC)c3csc(NS(=O)(=O)C4CC4)n3)c(F)c2)n1 (single isomer, unassigned) [T456]"
